Experimental data as given in ChEMBL document CHEMBL5360622, “Leucettinibs, a Class of DYRK/CLK Kinase Inhibitors Inspired by the Marine Sponge Natural Product Leucettamine B” (J Med Chem, 2023).
pIC50: −log10 of the molar value.

Columns and labels:
[1] = molecular target: T1, Dual specificity tyrosine-phosphorylation-regulated kinase 2 (Homo sapiens, UniProt Q92630)
T1 sequence (Q92630 whole entry): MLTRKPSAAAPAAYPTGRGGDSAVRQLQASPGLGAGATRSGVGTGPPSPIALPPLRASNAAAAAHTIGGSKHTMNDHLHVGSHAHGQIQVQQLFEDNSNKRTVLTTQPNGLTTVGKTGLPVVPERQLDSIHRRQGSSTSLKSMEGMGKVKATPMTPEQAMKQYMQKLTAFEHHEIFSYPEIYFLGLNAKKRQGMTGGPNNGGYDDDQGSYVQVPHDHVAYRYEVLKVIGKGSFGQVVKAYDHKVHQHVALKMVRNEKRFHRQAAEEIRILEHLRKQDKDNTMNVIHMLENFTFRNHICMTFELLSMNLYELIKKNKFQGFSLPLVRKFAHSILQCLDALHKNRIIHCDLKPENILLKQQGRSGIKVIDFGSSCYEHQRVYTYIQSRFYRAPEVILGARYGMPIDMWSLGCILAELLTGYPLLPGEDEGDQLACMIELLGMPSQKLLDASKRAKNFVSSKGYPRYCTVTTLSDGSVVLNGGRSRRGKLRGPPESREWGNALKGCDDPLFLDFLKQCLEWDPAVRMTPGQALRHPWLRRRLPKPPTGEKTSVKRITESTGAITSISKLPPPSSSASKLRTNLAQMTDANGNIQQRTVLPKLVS

[2] = molecular target: Glycogen synthase kinase-3 beta (Homo sapiens, UniProt P49841); assay type: cell-based, Sf9
Chain of Glycogen synthase kinase-3 beta (P49841 whole entry): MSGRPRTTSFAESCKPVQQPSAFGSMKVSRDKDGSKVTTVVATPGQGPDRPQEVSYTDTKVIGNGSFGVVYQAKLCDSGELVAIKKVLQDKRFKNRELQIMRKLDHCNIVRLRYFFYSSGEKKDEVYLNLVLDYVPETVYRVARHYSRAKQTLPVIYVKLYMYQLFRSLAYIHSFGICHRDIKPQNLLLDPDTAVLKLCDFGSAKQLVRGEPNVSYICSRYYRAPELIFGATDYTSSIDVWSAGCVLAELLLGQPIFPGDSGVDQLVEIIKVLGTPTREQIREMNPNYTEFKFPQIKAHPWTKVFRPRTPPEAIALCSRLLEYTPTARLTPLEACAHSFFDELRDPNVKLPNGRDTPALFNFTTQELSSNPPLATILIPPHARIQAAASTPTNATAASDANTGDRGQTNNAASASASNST

[3] = molecular target: Dual specificity protein kinase CLK3 (Homo sapiens, UniProt P49761); assay type: cell-based, Sf9
Chain of Dual specificity protein kinase CLK3 (P49761 whole entry, canonical isoform): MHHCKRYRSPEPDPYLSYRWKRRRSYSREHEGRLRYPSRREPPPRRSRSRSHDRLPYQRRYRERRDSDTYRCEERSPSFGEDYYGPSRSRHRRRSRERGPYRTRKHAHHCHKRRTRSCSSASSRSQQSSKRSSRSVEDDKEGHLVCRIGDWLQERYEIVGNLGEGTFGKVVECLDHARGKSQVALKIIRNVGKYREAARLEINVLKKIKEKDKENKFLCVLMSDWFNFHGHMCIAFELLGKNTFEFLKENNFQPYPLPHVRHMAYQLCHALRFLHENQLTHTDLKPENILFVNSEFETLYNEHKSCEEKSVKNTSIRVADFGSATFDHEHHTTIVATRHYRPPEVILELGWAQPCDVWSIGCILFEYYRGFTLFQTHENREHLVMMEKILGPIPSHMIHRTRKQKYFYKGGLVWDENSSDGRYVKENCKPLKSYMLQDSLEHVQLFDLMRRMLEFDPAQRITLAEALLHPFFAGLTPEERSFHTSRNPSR

[4] = molecular target: Casein kinase I isoform epsilon (Homo sapiens, UniProt P49674)
Chain of Casein kinase I isoform epsilon (P49674 whole entry, canonical isoform): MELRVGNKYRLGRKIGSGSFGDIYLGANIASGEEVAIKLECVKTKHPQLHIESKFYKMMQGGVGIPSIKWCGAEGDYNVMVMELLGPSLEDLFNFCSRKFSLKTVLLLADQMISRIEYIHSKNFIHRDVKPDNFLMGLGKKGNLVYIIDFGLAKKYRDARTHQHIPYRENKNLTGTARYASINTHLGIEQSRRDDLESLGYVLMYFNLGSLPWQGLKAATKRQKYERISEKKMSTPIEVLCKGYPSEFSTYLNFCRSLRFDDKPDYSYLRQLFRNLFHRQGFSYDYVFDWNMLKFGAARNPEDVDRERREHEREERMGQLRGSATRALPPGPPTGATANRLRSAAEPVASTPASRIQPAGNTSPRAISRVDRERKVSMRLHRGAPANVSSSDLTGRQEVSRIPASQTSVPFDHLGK

[5] = molecular target: Cyclin-dependent kinase 5/CDK5 activator 1 (Homo sapiens, UniProt Q00535); assay type: cell-based, Sf9
Chain of Cyclin-dependent kinase 5/CDK5 activator 1 (Q00535 whole entry): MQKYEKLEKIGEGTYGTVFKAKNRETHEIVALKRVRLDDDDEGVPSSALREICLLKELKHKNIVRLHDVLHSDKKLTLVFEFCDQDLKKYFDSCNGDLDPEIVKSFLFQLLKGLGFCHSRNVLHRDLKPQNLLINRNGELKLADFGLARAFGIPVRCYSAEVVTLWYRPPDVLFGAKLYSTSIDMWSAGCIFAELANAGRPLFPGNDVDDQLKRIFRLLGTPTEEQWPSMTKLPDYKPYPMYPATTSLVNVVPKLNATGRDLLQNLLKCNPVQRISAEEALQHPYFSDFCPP
Chain of Cyclin-dependent kinase 5/CDK5 activator 1 (Q15078 whole entry, further chain): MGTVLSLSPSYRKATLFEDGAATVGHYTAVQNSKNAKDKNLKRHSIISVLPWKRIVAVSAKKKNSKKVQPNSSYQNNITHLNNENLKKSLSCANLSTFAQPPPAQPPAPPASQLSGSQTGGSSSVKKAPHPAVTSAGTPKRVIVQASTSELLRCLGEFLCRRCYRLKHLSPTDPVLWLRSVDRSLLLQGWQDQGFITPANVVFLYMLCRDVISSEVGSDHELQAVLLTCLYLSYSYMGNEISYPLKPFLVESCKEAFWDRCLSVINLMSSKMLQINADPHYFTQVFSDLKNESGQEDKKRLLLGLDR

[6] = molecular target: Dual specificity protein kinase CLK2 (Homo sapiens, UniProt P49760)
Chain of Dual specificity protein kinase CLK2 (P49760 whole entry): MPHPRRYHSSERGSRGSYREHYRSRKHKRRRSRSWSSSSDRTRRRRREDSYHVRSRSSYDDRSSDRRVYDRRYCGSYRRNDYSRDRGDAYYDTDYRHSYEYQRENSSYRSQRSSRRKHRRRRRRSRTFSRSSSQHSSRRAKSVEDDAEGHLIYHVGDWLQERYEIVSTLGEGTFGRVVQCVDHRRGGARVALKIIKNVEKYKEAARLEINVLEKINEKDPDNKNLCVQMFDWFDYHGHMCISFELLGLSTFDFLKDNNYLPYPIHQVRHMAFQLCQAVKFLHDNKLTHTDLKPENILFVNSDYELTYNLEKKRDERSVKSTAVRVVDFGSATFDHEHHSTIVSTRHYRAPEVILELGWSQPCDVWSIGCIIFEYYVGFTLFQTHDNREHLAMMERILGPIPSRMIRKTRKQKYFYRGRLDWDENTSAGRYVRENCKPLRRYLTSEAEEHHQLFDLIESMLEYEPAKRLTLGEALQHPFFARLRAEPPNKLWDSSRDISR

[7] = molecular target: T2, Dual specificity tyrosine-phosphorylation-regulated kinase 4 (Homo sapiens, UniProt Q9NR20)
T2 sequence (Q9NR20 whole entry): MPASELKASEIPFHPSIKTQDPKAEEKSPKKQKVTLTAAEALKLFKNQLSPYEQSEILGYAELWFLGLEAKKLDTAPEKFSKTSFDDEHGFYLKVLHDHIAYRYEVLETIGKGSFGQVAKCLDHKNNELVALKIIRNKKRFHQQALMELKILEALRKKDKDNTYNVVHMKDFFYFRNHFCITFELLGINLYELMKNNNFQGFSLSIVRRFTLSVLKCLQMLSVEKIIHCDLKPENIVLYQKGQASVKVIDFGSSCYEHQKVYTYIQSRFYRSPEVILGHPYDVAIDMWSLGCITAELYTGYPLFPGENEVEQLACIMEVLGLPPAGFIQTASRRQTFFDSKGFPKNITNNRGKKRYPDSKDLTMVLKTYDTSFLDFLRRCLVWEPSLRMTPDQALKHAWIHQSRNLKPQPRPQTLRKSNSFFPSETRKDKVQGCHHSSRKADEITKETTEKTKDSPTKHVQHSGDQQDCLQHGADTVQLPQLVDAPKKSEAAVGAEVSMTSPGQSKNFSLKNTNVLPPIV

SMILES: O=C1NC(Nc2ccc(F)cc2)=N/C1=C\c1ccc2ncsc2c1
- pIC50 [1]: 6.13
- pIC50 [2]: < 5.00
- pIC50 [3]: 5.74
- pIC50 [4]: < 5.00
- pIC50 [5]: < 5.00
- pIC50 [6]: 6.39

SMILES: CS(=O)(=O)NC12CC3CC(CC(NC4=N/C(=C\c5ccc6ncsc6c5)C(=O)N4)(C3)C1)C2
- pIC50 [2]: 6.29
- pIC50 [3]: 5.99
- pIC50 [4]: 5.24
- pIC50 [7]: 6.63
- pIC50 [5]: 5.81

SMILES: CC(=O)NC12CC3CC(C1)CC(NC1=N/C(=C\c4ccc5ncsc5c4)C(=O)N1)(C3)C2
- pIC50 [2]: 6.18
- pIC50 [3]: 6.21
- pIC50 [4]: 5.92
- pIC50 [7]: 6.58
- pIC50 [5]: 6.21

SMILES: O=C1NC(N[C@@H](CO)CC2CCCC2)=N/C1=C\c1ccc2ncsc2c1
- pIC50 [1]: 5.40
- pIC50 [2]: 5.54
- pIC50 [3]: 5.84
- pIC50 [4]: < 5.00
- pIC50 [7]: 5.76
- pIC50 [5]: < 5.00
- pIC50 [6]: 7.40

SMILES: COC[C@@H](NC1=N/C(=C\c2ccc3ncsc3c2)C(=O)N1)c1ccccc1
- pIC50 [1]: 6.59
- pIC50 [2]: 5.25
- pIC50 [3]: 6.35
- pIC50 [4]: < 5.00
- pIC50 [7]: 5.42
- pIC50 [5]: < 5.00
- pIC50 [6]: 6.21

SMILES: NC[C@@H](NC1=N/C(=C\c2ccc3ncsc3c2)C(=O)N1)c1ccccc1
- pIC50 [2]: 6.99
- pIC50 [5]: 5.60

SMILES: O=C1NC(NCC23CC4CC(CC(C4)C2)C3)=N/C1=C\c1ccc2ncsc2c1
- pIC50 [1]: < 5.00
- pIC50 [2]: < 5.00
- pIC50 [3]: 5.83
- pIC50 [7]: 5.43
- pIC50 [5]: < 5.00
- pIC50 [6]: 7.43

SMILES: Cn1ccc(NC2=N/C(=C\c3ccc4ncsc4c3)C(=O)N2)n1
- pIC50 [1]: 5.95
- pIC50 [2]: 5.59
- pIC50 [3]: 6.70
- pIC50 [4]: < 5.00
- pIC50 [7]: 5.38
- pIC50 [5]: < 5.00
- pIC50 [6]: 6.95

SMILES: O=C1NC(N[C@@H]2CCOC2)=N/C1=C\c1ccc2ncsc2c1
- pIC50 [2]: < 5.00
- pIC50 [3]: 6.13
- pIC50 [4]: < 5.00
- pIC50 [7]: 5.56
- pIC50 [5]: < 5.00
- pIC50 [6]: 6.39

SMILES: O=C1NC(N[C@H]2CCOC2)=N/C1=C\c1ccc2ncsc2c1
- pIC50 [2]: 5.18
- pIC50 [3]: 6.39
- pIC50 [4]: < 5.00
- pIC50 [7]: 5.98
- pIC50 [5]: < 5.00
- pIC50 [6]: 6.40

SMILES: COC12CC3CC(CC(NC4=N/C(=C\c5ccc6ncsc6c5)C(=O)N4)(C3)C1)C2
- pIC50 [2]: 6.34
- pIC50 [3]: 6.55
- pIC50 [4]: 5.75
- pIC50 [7]: 6.55
- pIC50 [5]: 6.52

SMILES: O=C1NC(NC2CCC(F)(F)CC2)=N/C1=C\c1ccc2ncsc2c1
- pIC50 [1]: 6.34
- pIC50 [2]: < 5.00
- pIC50 [3]: 6.33
- pIC50 [4]: < 5.00
- pIC50 [7]: 5.70
- pIC50 [5]: < 5.00

SMILES: O=C1NC(NC2CCCCC(F)(F)C2)=N/C1=C\c1ccc2ncsc2c1 (racemic)
- pIC50 [2]: 5.87
- pIC50 [4]: 6.38
- pIC50 [7]: 6.76
- pIC50 [5]: 6.22

SMILES: NCC(NC1=N/C(=C\c2ccc3ncsc3c2)C(=O)N1)c1ccccc1 (centres undefined)
- pIC50 [2]: 6.21
- pIC50 [5]: 6.03

SMILES: O=C1NC(NC23CC4CC(CC(O)(C4)C2)C3)=N/C1=C\c1ccc2ncsc2c1
- pIC50 [2]: 6.50
- pIC50 [3]: 6.67
- pIC50 [4]: 5.96
- pIC50 [5]: 6.48

SMILES: O=C1NC(NC23CC4CC(CC(NC(=O)C5CC5)(C4)C2)C3)=N/C1=C\c1ccc2ncsc2c1
- pIC50 [2]: 6.44
- pIC50 [3]: 6.18
- pIC50 [4]: 5.64
- pIC50 [7]: 6.57
- pIC50 [5]: 5.84

SMILES: O=C1NC(N[C@@H]2CCC[C@H]2O)=N/C1=C\c1ccc2ncsc2c1 (racemic)
- pIC50 [1]: 6.33
- pIC50 [2]: < 5.00
- pIC50 [3]: 6.65
- pIC50 [4]: < 5.00
- pIC50 [7]: 6.26
- pIC50 [5]: < 5.00
